Assay results from patent US7022648B2, “Plant seeds treated with N,N′-substituted ureas” (Stoller Enterprises, Inc., priority 1996, dated 2006).
Where “and” joins values, the source holds several entries; their conditions need not be identical. Equal values may be shown once.

Assays:
Type in all cases: in vivo
Soybean [1] = test: Preliminary greenhouse pot test, seeds soaked in diformylurea solution, root and shoot mass; conditions: seed soak 24 h, 30 days
Description: (§1) In a preliminary experiment to determine the agricultural value of the N,N′-diformylurea prepared above, a concentrate was prepared by mixing 200 grams diformylurea and 200 grams formic acid, adjusting the ph to about 5.5 by the addition of potassium hydroxide and adding sufficient water to make 1 liter. […] Low, medium and high dilution aqueous solutions were prepared by diluting, respectively, 0.8 grams, 8.0 grams and 40.0 grams of the concentrate per liter of final solution. […] The foregoing solutions were used to coat corn, soybean, cotton and rice seeds prior to planting. Coating was achieved by soaking the seeds in the foregoing solutions for about 24 hours. Sufficient solution was used to keep the seeds immersed. Control seeds were soaked in water for the same time. Untreated or control seeds, together with seeds treated by the low, medium and high dilution solutions, were planted in 1 gallon greenhouse pots. Six pots were used for each dilution or control with five seeds planted per pot. The plants were thinned to two plants per pot after emergence. The plants were watered and fertilized as required. After 30 days the plants were harvested and the roots and shoots examined. The roots and shoots were weighed separately and the root/shoot ratio determined. The treated plants were generally characterized by both greater root mass and shoot mass when compared to the controls. The root/shoot ratio for most of the treated plants was greater than that for the controls.

Cotton [2] = test: as above; conditions: seed soak 24 h, 30 days
Description: as §1

Rice = test: Greenhouse pot test, effect of diformylurea concentration applied to seeds; conditions: seed treated, 24 h soak, 30 days; for Roots (gm), Average / Shoots (gm), Average / Total (gm), Average: average of samples
Description: (§2) Additional experiments were designed to study further the effect of the concentration of diformylurea applied to the seeds of several other crops. These experiments were conducted using cotton, rice, corn and soybeans. These experiments were similar to the preliminary experiments described above. The concentrate described above, containing both diformylurea and formate, was used to prepare solutions containing low, medium and high concentrations of diformylurea having, respectively, 0.001 M, 0.01 M and 0.05 M diformylurea. These solutions were used to treat the seeds of cotton, rice, corn and soybeans. Seeds of each of these crops were soaked in water or the prepared aqueous solutions of diformylurea for 24 hours before planting. Five seeds were planted in each of six, 1 gallon greenhouse pots. Pots were thinned to two plants after germination and the plants watered and fertilized as needed for 30 days. Thereafter, the plants were harvested and the mass of the roots, shoots and total mass determined.

Soybean [3] = test: as above; conditions: seed treated, 24 h soak, 30 days; for Roots (gm), Average / Shoots (gm), Average / Total (gm), Average: average of samples
Description: as §2

Corn = test: as above; conditions: seed treated, 24 h soak, 30 days; for Roots (gm), Average / Shoots (gm), Average / Total (gm), Average: average of samples; for Roots (gm) / Shoots (gm) / Total (gm): single sample (pot)
Description: as §2

Cotton [4] = test: as above; conditions: seed treated, 24 h soak, 30 days; for Roots (gm), Average / Shoots (gm), Average / Total (gm), Average: average of samples
Description: as §2

O=CNC(=O)NC=O [diformylurea, N,N′-diformylurea]
Root/Shoot Ratio (Soybean [1]; Low dilution, 0.0013 M): 0.93
Roots (gm) (Soybean [1]; Low dilution, 0.0013 M): 4.60 gm
Shoots (gm) (Soybean [1]; Low dilution, 0.0013 M): 4.90 gm
Total (gm) (Soybean [1]; Low dilution, 0.0013 M): 9.50 gm
Root/Shoot Ratio (Soybean [1]; Medium dilution, 0.013 M): 1.20
Roots (gm) (Soybean [1]; Medium dilution, 0.013 M): 4.90 gm
Shoots (gm) (Soybean [1]; Medium dilution, 0.013 M): 4.10 gm
Total (gm) (Soybean [1]; Medium dilution, 0.013 M): 9.00 gm
Root/Shoot Ratio (Cotton [2]; High dilution, 0.068 M): 0.73
Roots (gm) (Cotton [2]; High dilution, 0.068 M): 5.07 gm
Shoots (gm) (Cotton [2]; High dilution, 0.068 M): 6.90 gm
Total (gm) (Cotton [2]; High dilution, 0.068 M): 11.97 gm
Root/Shoot Ratio (Cotton [2]; Low dilution, 0.0013 M): 1.46
Roots (gm) (Cotton [2]; Low dilution, 0.0013 M): 7.85 gm
Shoots (gm) (Cotton [2]; Low dilution, 0.0013 M): 5.38 gm
Total (gm) (Cotton [2]; Low dilution, 0.0013 M): 13.23 gm
Root/Shoot Ratio (Cotton [2]; Medium dilution, 0.013 M): 1.08
Roots (gm) (Cotton [2]; Medium dilution, 0.013 M): 4.50 gm
Shoots (gm) (Cotton [2]; Medium dilution, 0.013 M): 5.25 gm
Total (gm) (Cotton [2]; Medium dilution, 0.013 M): 9.75 gm
Percent Change v. Control, Roots (Rice; 0.001 M): 37%
Percent Change v. Control, Shoots (Rice; 0.001 M): 42%
Percent Change v. Control, Total (Rice; 0.001 M): 39%
Root/Shoot Ratio (Rice; 0.001 M): 1.79
Roots (gm), Average (Rice; 0.001 M): 0.61 gm
Shoots (gm), Average (Rice; 0.001 M): 0.34 gm
Total (gm), Average (Rice; 0.001 M): 0.95 gm
Percent Change v. Control, Roots (Rice; 0.01 M): 13%
Percent Change v. Control, Shoots (Rice; 0.01 M): 29%
Percent Change v. Control, Total (Rice; 0.01 M): 19%
Root/Shoot Ratio (Rice; 0.01 M): 1.67
Roots (gm), Average (Rice; 0.01 M): 0.51 gm
Shoots (gm), Average (Rice; 0.01 M): 0.31 gm
Total (gm), Average (Rice; 0.01 M): 0.82 gm
Percent Change v. Control, Roots (Rice; 0.05 M): 82%
Percent Change v. Control, Shoots (Rice; 0.05 M): 63%
Percent Change v. Control, Total (Rice; 0.05 M): 76%
Root/Shoot Ratio (Rice; 0.05 M): 2.13
Roots (gm), Average (Rice; 0.05 M): 0.82 gm
Shoots (gm), Average (Rice; 0.05 M): 0.39 gm
Total (gm), Average (Rice; 0.05 M): 1.21 gm
Percent Change v. Control, Roots (Soybean [3]; 0.001 M): 89%
Percent Change v. Control, Shoots (Soybean [3]; 0.001 M): 29%
Percent Change v. Control, Total (Soybean [3]; 0.001 M): 52%
Root/Shoot Ratio (Soybean [3]; 0.001 M): 0.93
Roots (gm), Average (Soybean [3]; 0.001 M): 9.18 gm
Shoots (gm), Average (Soybean [3]; 0.001 M): 9.87 gm
Total (gm), Average (Soybean [3]; 0.001 M): 19.05 gm
Roots (gm) (Soybean [3]; 0.001 M, single sample (pot)): 7.30 gm and 8.00 gm and 11.30 gm and 12.30 gm and 7.80 gm and 8.40 gm
Shoots (gm) (Soybean [3]; 0.001 M, single sample (pot)): 10.20 gm and 10.30 gm and 9.30 gm and 10.90 gm and 8.70 gm and 9.80 gm
Total (gm) (Soybean [3]; 0.001 M, single sample (pot)): 17.50 gm and 18.30 gm and 20.60 gm and 23.20 gm and 16.50 gm and 18.20 gm
Percent Change v. Control, Roots (Soybean [3]; 0.01 M): 54%
Percent Change v. Control, Shoots (Soybean [3]; 0.01 M): 16%
Percent Change v. Control, Total (Soybean [3]; 0.01 M): 31%
Root/Shoot Ratio (Soybean [3]; 0.01 M): 0.84
Roots (gm), Average (Soybean [3]; 0.01 M): 7.48 gm
Shoots (gm), Average (Soybean [3]; 0.01 M): 8.86 gm
Total (gm), Average (Soybean [3]; 0.01 M): 16.34 gm
Shoots (gm) (Soybean [3]; 0.01 M, single sample (pot)): 11.20 gm and 6.00 gm and 8.30 gm and 9.90 gm and 8.90 gm
Percent Change v. Control, Roots (Corn; 0.001 M): 2%
Percent Change v. Control, Shoots (Corn; 0.001 M): 5%
Percent Change v. Control, Total (Corn; 0.001 M): 3%
Root/Shoot Ratio (Corn; 0.001 M): 1.04
Roots (gm), Average (Corn; 0.001 M): 19.65 gm
Shoots (gm), Average (Corn; 0.001 M): 18.85 gm
Total (gm), Average (Corn; 0.001 M): 38.50 gm
Roots (gm) (Corn; 0.001 M): 18.90 gm and 17.20 gm and 27.00 gm and 19.10 gm and 18.10 gm and 17.60 gm
Shoots (gm) (Corn; 0.001 M): 21.10 gm and 14.00 gm and 17.60 gm and 22.00 gm and 18.90 gm and 19.50 gm
Total (gm) (Corn; 0.001 M): 40.00 gm and 31.20 gm and 44.60 gm and 41.10 gm and 37.00 gm and 37.10 gm
Percent Change v. Control, Roots (Corn; 0.01 M): 9%
Percent Change v. Control, Shoots (Corn; 0.01 M): 7%
Percent Change v. Control, Total (Corn; 0.01 M): 8%
Root/Shoot Ratio (Corn; 0.01 M): 1.09
Roots (gm), Average (Corn; 0.01 M): 20.92 gm
Shoots (gm), Average (Corn; 0.01 M): 19.17 gm
Total (gm), Average (Corn; 0.01 M): 40.09 gm
Roots (gm) (Corn; 0.01 M): 16.20 gm and 25.10 gm and 24.10 gm and 20.00 gm and 15.30 gm and 24.80 gm
Shoots (gm) (Corn; 0.01 M): 18.60 gm and 22.10 gm and 23.00 gm and 16.60 gm and 15.50 gm and 19.70 gm
Total (gm) (Corn; 0.01 M): 34.80 gm and 47.20 gm and 47.10 gm and 36.60 gm and 30.80 gm and 44.50 gm
Percent Change v. Control, Roots (Corn; 0.05 M): 0%
Percent Change v. Control, Shoots (Corn; 0.05 M): −2%
Percent Change v. Control, Total (Corn; 0.05 M): −1%
Root/Shoot Ratio (Corn; 0.05 M): 1.09
Roots (gm), Average (Corn; 0.05 M): 19.20 gm
Shoots (gm), Average (Corn; 0.05 M): 17.62 gm
Total (gm), Average (Corn; 0.05 M): 36.82 gm
Roots (gm) (Corn; 0.05 M): 17.90 gm and 20.40 gm and 17.80 gm and 21.20 gm and 18.70 gm
Shoots (gm) (Corn; 0.05 M): 17.40 gm and 20.60 gm and 15.90 gm and 18.40 gm and 15.80 gm
Total (gm) (Corn; 0.05 M): 35.30 gm and 41.00 gm and 33.70 gm and 39.60 gm and 34.50 gm
Percent Change v. Control, Roots (Cotton [4]; 0.001 M): 159%
Percent Change v. Control, Shoots (Cotton [4]; 0.001 M): 18%
Percent Change v. Control, Total (Cotton [4]; 0.001 M): 74%
Root/Shoot Ratio (Cotton [4]; 0.001 M): 1.46
Roots (gm), Average (Cotton [4]; 0.001 M): 7.85 gm
Shoots (gm), Average (Cotton [4]; 0.001 M): 5.38 gm
Total (gm), Average (Cotton [4]; 0.001 M): 13.23 gm
Shoots (gm) (Cotton [4]; 0.001 M, single sample (pot)): 4.80 gm and 4.40 gm and 6.20 gm and 5.50 gm and 5.70 gm
Total (gm) (Cotton [4]; 0.001 M, single sample (pot)): 8.60 gm and 12.40 gm and 16.20 gm and 14.70 gm and 12.60 gm and 14.90 gm
Percent Change v. Control, Roots (Cotton [4]; 0.01 M): 49%
Percent Change v. Control, Shoots (Cotton [4]; 0.01 M): 15%
Percent Change v. Control, Total (Cotton [4]; 0.01 M): 28%
Root/Shoot Ratio (Cotton [4]; 0.01 M): 0.86
Roots (gm), Average (Cotton [4]; 0.01 M): 4.50 gm
Shoots (gm), Average (Cotton [4]; 0.01 M): 5.25 gm
Total (gm), Average (Cotton [4]; 0.01 M): 9.75 gm
Shoots (gm) (Cotton [4]; 0.01 M, single sample (pot)): 4.00 gm and 6.00 gm and 4.90 gm and 7.20 gm and 4.80 gm and 4.60 gm
Percent Change v. Control, Roots (Cotton [4]; 0.05 M): 67%
Percent Change v. Control, Shoots (Cotton [4]; 0.05 M): 29%
Percent Change v. Control, Total (Cotton [4]; 0.05 M): 44%
Root/Shoot Ratio (Cotton [4]; 0.05 M): 0.86
Roots (gm), Average (Cotton [4]; 0.05 M): 5.07 gm
Shoots (gm), Average (Cotton [4]; 0.05 M): 5.90 gm
Total (gm), Average (Cotton [4]; 0.05 M): 10.97 gm
Roots (gm) (Cotton [4]; 0.05 M, single sample (pot)): 4.30 gm and 6.00 gm and 4.20 gm and 4.60 gm and 4.70 gm and 6.60 gm
Shoots (gm) (Cotton [4]; 0.05 M, single sample (pot)): 4.70 gm and 5.00 gm and 6.40 gm and 5.40 gm and 6.90 gm and 7.00 gm
Total (gm) (Cotton [4]; 0.05 M, single sample (pot)): 9.00 gm and 11.00 gm and 10.60 gm and 10.80 gm and 11.60 gm and 13.60 gm
